Experimental data reported in patent publication US20120264735A1 (priority 2009, published 2012).

Biological target: T1, c-Met kinase (recombinant c-Met) (Homo sapiens, UniProt P08581)
T1 construct: 0.27 nM recombinant c-Met
Assay: In vitro kinase assay I (homogeneous time-resolved fluorescence tyrosine kinase assay)
Assay type: biochemical
Method in brief: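 Biotinylated peptide (0.5 μM) phosphorylated by 0.2 nM recombinant c-Met with 50 μM MgATP, 60 min at room temperature, pH 7.4, 5% DMSO. EDTA stop; HTRF read with Eu-anti-phosphotyrosine antibody and streptavidin-APC. IC50 from 4-parameter logistic fit.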

T1 sequence (P08581 25-1390): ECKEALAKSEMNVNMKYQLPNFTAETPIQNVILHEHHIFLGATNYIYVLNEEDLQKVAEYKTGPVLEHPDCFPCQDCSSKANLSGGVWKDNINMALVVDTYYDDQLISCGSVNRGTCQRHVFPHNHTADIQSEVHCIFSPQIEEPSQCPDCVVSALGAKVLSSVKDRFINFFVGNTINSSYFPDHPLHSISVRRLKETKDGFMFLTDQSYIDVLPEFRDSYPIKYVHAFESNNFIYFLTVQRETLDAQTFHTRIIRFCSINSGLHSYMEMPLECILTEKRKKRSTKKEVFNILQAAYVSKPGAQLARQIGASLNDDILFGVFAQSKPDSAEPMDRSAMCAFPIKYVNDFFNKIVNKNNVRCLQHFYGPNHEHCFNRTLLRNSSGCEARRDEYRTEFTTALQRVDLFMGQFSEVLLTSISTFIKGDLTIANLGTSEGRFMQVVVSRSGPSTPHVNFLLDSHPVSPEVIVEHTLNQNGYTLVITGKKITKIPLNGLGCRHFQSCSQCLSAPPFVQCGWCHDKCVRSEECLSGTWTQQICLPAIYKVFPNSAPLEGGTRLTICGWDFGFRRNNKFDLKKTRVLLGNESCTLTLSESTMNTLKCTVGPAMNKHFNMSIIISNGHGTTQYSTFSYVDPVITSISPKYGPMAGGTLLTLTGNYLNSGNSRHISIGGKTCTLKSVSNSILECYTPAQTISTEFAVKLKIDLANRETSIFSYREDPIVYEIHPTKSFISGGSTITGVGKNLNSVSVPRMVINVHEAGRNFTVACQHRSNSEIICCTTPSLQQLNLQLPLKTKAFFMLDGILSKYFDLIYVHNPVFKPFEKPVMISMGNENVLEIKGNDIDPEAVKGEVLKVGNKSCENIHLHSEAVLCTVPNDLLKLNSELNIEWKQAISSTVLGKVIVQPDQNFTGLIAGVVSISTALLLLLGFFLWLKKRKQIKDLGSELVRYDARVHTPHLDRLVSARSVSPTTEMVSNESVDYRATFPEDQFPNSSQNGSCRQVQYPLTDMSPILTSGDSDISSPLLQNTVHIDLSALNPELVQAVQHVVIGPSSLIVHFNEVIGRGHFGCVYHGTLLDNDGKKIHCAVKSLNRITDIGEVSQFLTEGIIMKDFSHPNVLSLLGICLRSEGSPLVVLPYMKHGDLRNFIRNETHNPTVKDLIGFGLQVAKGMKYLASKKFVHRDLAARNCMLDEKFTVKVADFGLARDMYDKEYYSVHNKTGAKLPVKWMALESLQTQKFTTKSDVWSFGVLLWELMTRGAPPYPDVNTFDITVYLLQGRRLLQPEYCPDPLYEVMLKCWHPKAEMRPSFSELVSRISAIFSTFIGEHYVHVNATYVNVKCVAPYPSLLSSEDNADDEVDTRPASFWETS

| IC50 [nM] | Structure (SMILES) |
| --- | --- |
| < 100 | COCCN1CCC(COC(=O)Nc2cccc(Cc3nn(-c4cccc(C#N)c4)ccc3=O)c2)C1 (racemic) [Example 585, rac-[1-(2-methoxyethyl)pyrrolidin-3-yl]methyl (3-{[1-(3-cyanophenyl)-4-oxo-1,4-dihydropyridazin-3-yl]methyl}phenyl)carbamate] |
| < 100 | CCC(COC(=O)Nc1cccc(Cc2nn(-c3cc(F)cc(F)c3)ccc2=O)c1)OC (racemic) [Example 591, rac-2-methoxybutyl (3-{[1-(3,5-difluorophenyl)-4-oxo-1,4-dihydropyridazin-3-yl]methyl}phenyl)carbamate] |
| < 100 | O=C(Nc1cccc(Cc2nn(-c3cc(F)cc(F)c3)ccc2=O)c1)OCC1CCOC1 (racemic) [Example 593, rac-tetrahydrofuran-3-ylmethyl-(3-{[1-(3,5-difluorophenyl)-4-oxo-1,4-dihydropyridazin-3-yl]methyl}phenyl)carbamate] |
| < 100 | COCCN1CCC(COC(=O)Nc2cccc(Cc3nn(-c4cc(F)cc(F)c4)ccc3=O)c2)C1 (racemic) [Example 594, rac-[1-(2-methoxyethyl)pyrrolidin-3-yl]methyl-(3-{[1-(3,5-difluorophenyl)-4-oxo-1,4-dihydropyridazin-3-yl]methyl}phenyl)carbamate] |
| < 100 | N#Cc1cccc(-n2ccc(=O)c(Cc3cccc(NC(=O)OCC4COCCO4)c3)n2)c1 (racemic) [Example 601, rac-1,4-dioxan-2-ylmethyl (3-{[1-(3-cyanophenyl)-4-oxo-1,4-dihydropyridazin-3-yl]methyl}phenyl)carbamate] |
| < 100 | O=C(Nc1cccc(Cc2nn(-c3ccc(F)c(F)c3)ccc2=O)c1)OCC1COCCO1 (racemic) [Example 603, rac-1,4-dioxan-2-ylmethyl (3-{[1-(3,4-difluorophenyl)-4-oxo-1,4-dihydropyridazin-3-yl]methyl}phenyl)carbamate] |
| < 100 | O=C(Nc1cccc(Cc2nn(-c3cc(F)cc(F)c3)ccc2=O)c1)OCC1CCCOC1 (racemic) [Example 607, rac-tetrahydro-2H-pyran-3-ylmethyl (3-{[1-(3,5-difluorophenyl)-4-oxo-1,4-dihydropyridazin-3-yl]methyl}phenyl)carbamate] |
| < 100 | Cn1cc(-n2ccc(=O)c(Cc3cccc(NC(=O)OCC4CCOC(C)(C)C4)c3)n2)cn1 (racemic) [Example 611, rac-(2,2-dimethyl-tetrahydro-2H-pyran-4-yl)methyl (3-{[1-(1-methyl-1H-pyrazol-4-yl)-4-oxo-1,4-dihydropyridazin-3-yl]methyl}phenyl)carbamate] |
| < 100 | Cn1cc(-n2ccc(=O)c(Cc3cccc(NC(=O)OCCC4(O)CCOC(C)(C)C4)c3)n2)cn1 (racemic) [Example 612, rac-2-(4-hydroxy-2,2-dimethyl-tetrahydro-2H-pyran-4-yl)ethyl (3-{[1-(1-methyl-1H-pyrazol-4-yl)-4-oxo-1,4-dihydropyridazin-3-yl]methyl}phenyl)carbamate] |
| < 100 | Cn1cc(-n2ccc(=O)c(Cc3cccc(NC(=O)OCC(N)C(F)(F)F)c3)n2)cn1 (racemic) [Example 619, rac-2-amino-3,3,3-trifluoropropyl (3-{[1-(1-methyl-1H-pyrazol-4-yl)-4-oxo-1,4-dihydropyridazin-3-yl]methyl}phenyl)carbamate] |
| < 100 | Cn1cc(-n2ccc(=O)c(Cc3cccc(NC(=O)OCC(F)CN)c3)n2)cn1 (racemic) [Example 621, rac-3-amino-2-fluoropropyl (3-{[1-(1-methyl-1H-pyrazol-4-yl)-4-oxo-1,4-dihydropyridazin-3-yl]methyl}phenyl)carbamate] |
| < 100 | Cn1cc(-n2ccc(=O)c(Cc3cccc(NC(=O)OCC(F)CN4CCOCC4)c3)n2)cn1 (racemic) [Example 638, rac-2-Fluoro-3-morpholin-4-ylpropyl (3-{[1-(1-methyl-1H-pyrazol-4-yl)-4-oxo-1,4-dihydropyridazin-3-yl]methyl}phenyl)carbamate] |
| < 100 | CCOC(=O)Nc1cccc(C(F)c2nn(-c3cnn(C)c3)ccc2=O)c1 (racemic) [Example 639, rac-Ethyl(3-{fluoro[1-(1-methyl-1H-pyrazol-4-yl)-4-oxo-1,4-dihydropyridazin-3-yl]methyl}phenyl)carbamate] |
| 100 to 1000 | CCOC(=O)Nc1cccc(C(F)c2nn(-c3ccccc3)ccc2=O)c1 (racemic) [Example 640, rac-Ethyl-{3-[fluoro(4-oxo-1-phenyl-1,4-dihydropyridazin-3-yl)methyl]phenyl}carbamate] |
| 100 to 1000 | CCOC(=O)Nc1cccc(C(F)c2nn(-c3ccc(Cl)cc3)ccc2=O)c1 (racemic) [Example 641, rac-Ethyl(3-{[1-(4-chlorophenyl)-4-oxo-1,4-dihydropyridazin-3-yl](fluoro)methyl}phenyl)carbamate] |
| 100 to 1000 | CCOC(=O)Nc1cccc(C(C)c2nn(-c3ccccc3)ccc2=O)c1 (racemic) [Example 651, rac-Ethyl {3-[1-(4-oxo-1-phenyl-1,4-dihydropyridazin-3-yl)ethyl]phenyl}carbamate] |

| IC50 [nM] | Structure (SMILES) |
| --- | --- |
| 100 to 1000 | CCOc1cnc(-c2cccc(C(O)c3nn(-c4cnn(C)c4)ccc3=O)c2)nc1 (racemic) [Example 654, rac-3-[[3-(5-Ethoxypyrimidin-2-yl)phenyl](hydroxy)methyl]-1-(1-methyl-1H-pyrazol-4-yl)pyridazin-4(1H)-one] |
| < 100 | [2H]C([2H])([2H])n1cc(-n2ccc(=O)c(C(F)c3cccc(-c4ncc(OCC)cn4)c3)n2)cn1 (racemic) [Example 657, rac-3-[[3-(5-Ethoxypyrimidin-2-yl)phenyl](fluoro)methyl]-1-(1-methyl-1H-pyrazol-4-yl)pyridazin-4(1H)-one-d3] |
| < 100 | [2H]C([2H])([2H])n1cc(-n2ccc(=O)c(C(F)c3cccc(-c4ncc(OC([2H])([2H])C([2H])([2H])[2H])cn4)c3)n2)cn1 (racemic) [Example 658, rac-3-[[3-(5-Ethoxypyrimidin-2-yl)phenyl](fluoro)methyl]-1-(1-methyl-1H-pyrazol-4-yl)pyridazin-4(1H)-one-d8] |
| 100 to 1000 | CCOc1cnc(-c2cccc(C(OC)c3nn(-c4cnn(C)c4)ccc3=O)c2)nc1 (racemic) [Example 659, rac-3-[[3-(5-Ethoxypyrimidin-2-yl)phenyl](methoxy)methyl]-1-(1-methyl-1H-pyrazol-4-yl)pyridazin-4(1H)-one] |
| 100 to 1000 | CCOc1cnc(-c2cccc(C(CCC#N)c3nn(-c4cn[nH]c4)ccc3=O)c2)nc1 (racemic) [Example 665, rac-4-[3-(5-Ethoxypyrimidin-2-yl)phenyl]-4-[4-oxo-1-(1H-pyrazol-4-yl)-1,4-dihydropyridazin-3-yl]butanenitrile] |
| < 100 | CCOc1ccnc(-c2cccc(C(C)c3nn(-c4cnn(C)c4)ccc3=O)c2)n1 (racemic) [Example 678, rac-3-{1-[3-(4-Ethoxypyrimidin-2-yl)phenyl]ethyl}-1-(1-methyl-1H-pyrazol-4-yl)pyridazin-4(1H)-one] |
| 100 to 1000 | COCCOc1ccnc(-c2cccc(C(C)c3nn(-c4cnn(C)c4)ccc3=O)c2)n1 (racemic) [Example 679, rac-3-(1-{3-[4-(2-methoxyethoxy)pyrimidin-2-yl]phenyl}ethyl)-1-(1-methyl-1H-pyrazol-4-yl)pyridazin-4(1H)-one] |
| 100 to 1000 | CC(C)COC(=O)Nc1cccc(Cc2nn(-c3cnn(CCCC(=O)NCC(C)O)c3)ccc2=O)c1 (racemic) [Example 706, rac-2-methylpropyl (3-{[1-(1-{4-[(2-hydroxypropyl)amino]-4-oxobutyl}-1H-pyrazol-4-yl)-4-oxo-1,4-dihydropyridazin-3-yl]methyl}phenyl) carbamate] |
| < 100 | Cn1cc(-n2ccc(=O)c(Cc3cccc(-c4ncn(CCC5CCCO5)n4)c3)n2)cn1 (racemic) [Example 711, rac-1-(1-methyl-1H-pyrazol-4-yl)-3-(3-{1-[2-(tetrahydrofuran-2-yl)ethyl]-1H-1,2,4-triazol-3-yl}benzyl)pyridazin-4(1H)-one] |
| < 100 | Cn1cc(-n2ccc(=O)c(Cc3cccc(-c4ncn(CCC5CCOC5)n4)c3)n2)cn1 (racemic) [Example 717, rac-1-(1-methyl-1H-pyrazol-4-yl)-3-(3-{1-[2-(tetrahydrofuran-3-yl)ethyl]-1H-1,2,4-triazol-3-yl}benzyl)pyridazin-4(1H)-one] |
| < 100 | Cn1cc(-n2ccc(=O)c(Cc3cccc(-c4ncn(CCCC5CCCO5)n4)c3)n2)cn1 (racemic) [Example 721, rac-1-(1-methyl-1H-pyrazol-4-yl)-3-(3-{1-[3-(tetrahydrofuran-2-yl)propyl]-1H-1,2,4-triazol-3-yl}benzyl)pyridazin-4(1H)-one] |
| < 100 | CCOc1cnc(-c2cccc(C(C)c3nn(-c4cccc(C(N)=O)c4)ccc3=O)c2)nc1 (racemic) [Example 738, rac-3-[3-{1-[3-(5-ethoxypyrimidin-2-yl)phenyl]ethyl}-4-oxopyridazin-1(4H)-yl]lbenzamide] |
| < 100 | Cn1cc(-n2ccc(=O)c(Cc3cccc(-c4ncc([C@]5(F)CCNC[C@@H]5O)cn4)c3)n2)cn1 (racemic) [Example 749, rac-3-({3-[5-(trans-4-Fluoro-3-hydroxypiperidin-4-yl)pyrimidin-2-yl]benzyl}-1-(1-methyl-1H-pyrazol-4-yl)pyridazin-4(1H)-one] |
| 1000 to 3000 | Cn1cc(-n2ccc(=O)c(C(F)c3ccc4ncccc4c3)n2)cn1 (racemic) [Example 753, rac-3-[Fluoro(quinolin-6-yl)methyl]-1-(1-methyl-1H-pyrazol-4-yl)pyridazin-4(1H)-one] |
| < 100 | Cn1cc(-n2ccc(=O)c(Cc3cccc(-c4ncc(C5CCOC5)cn4)c3)n2)cn1 (racemic) [compound 199, rac-1-(1-methyl-1H-pyrazol-4-yl)-3-{3-[5-(tetrahydrofuran-3-yl)pyrimidin-2-yl]benzyl} pyridazin-4(1H)-one] |
